Assay results published in patent US20210009630A1, “CYCLIC DINUCLEOTIDES AS STING AGONISTS” (Janssen Biotech, Inc., priority 2017, published 2021).

Tests used:
[1] = target: T1, human STING (E. coli produced truncated STING protein) (Homo sapiens, UniProt Q86WV6, H232R); assay: STING SPR binding assay; conditions: steady state affinity, 1:1 binding model, 25° C.
T1 construct: contains residues 139-379 of Q86WV6 with an R at position 232 (H232R); HIS tag (N, cleaved yes); made in house; host or cells: E. coli
Protocol: Compounds were analyzed on an S200 biacore SPR instrument (GE Healthcare). E. coli produced truncated STING protein was immobilized on a series S streptavidin chip via biotin capture (GE Healthcare #BR100531) with. […] Steady state affinity and kinetic evaluations were carried out using 1:1 binding model (STING was treated as a dimer). Run parameters were as follows: 60 sec on, 300 sec off for the IFM compounds, cyclic-di-GMP (60 sec on/60 sec off), thiol isomer 1 (60 sec on/300 sec off) and cGAMP (60 sec on/1200 sec off) with a flow rate of 50 μL/min and data collection at 40 Hz at 25° C.

[2] = target: human STING (biotinylated STING protein, residues 139-379 of Q86WV6, H232R) (Homo sapiens, UniProt Q86WV6, H232R); assay: STING SPA binding assay
Protocol: The HIS tag is cleaved after purification and prior to biotinylation.
Test compounds (80 nL) were added with an acoustic dispenser (EDC Biosystems) in 100% DMSO for a final assay concentration of 1% DMSO. Plates were centrifuged for 1 min and incubated for 60 min at room temperature. […] Plates were dark adapted for 2 h and read on a ViewLux (Perkin Elmer) for 12 min per plate.

[3] = test system: human STING pathway (THP1-ISG cells); assay: STING human cell reporter assay; assay type: cell-based; conditions: Homo sapiens, IRF-inducible SEAP reporter, 24 h, means of at least three values
Protocol: Agonism of the human STING pathway is assessed in THP1-ISG cells (Invivogen, cat #thp-isg) derived from human THP1 monocyte cell line by stable integration of an interferon regulatory factor (IRF)-inducible SEAP reporter construct. THP1-Blue ISG cells express a secreted embryonic alkaline phosphatase (SEAP) reporter gene under the control of an ISG54 minimal promoter in conjunction with five interferon (IFN)-stimulated response elements. As a result, THP1-Blue ISG cells allow the monitoring of IRF activation by determining the activity of SEAP. The levels of IRF-induced SEAP in the cell culture supernatant are readily assessed with alkaline phosphatase detection medium, a SEAP detection reagent. These cells are resistant to Zeocin. 2′3′cGAMP was used as a positive control in this assay. To run the assay, 60,000 cells were dispensed in 30 μL/well of a white, opaque bottom tissue culture treated 384-well plate.
Test compounds were added in a volume of 10 μL (1% DMSO final concentration). Compounds are initially prepared in 100% DMSO, spotted on an compound dilution plate and then diluted in media prior to transfer. The assay was incubated for 24 h at 37° C., 5% CO2 then plates were centrifuged at 1200 rpm (120×g) for 5 min. After final incubation, 90 μL of alkaline phosphatase detection medium-substrate was added to each well of a new 384-well clear plate and 10 μL of the cell supernatant was transferred from the assay plate to the new alkaline phosphatase detection medium-plate using a Biomek FX and mixed 4 times. Plates were incubated at RT for 20 min then absorbance at 655 nm was determined on the Tecan Safire2.

[4] = test system: CT26 colon carcinoma tumor; assay: STING in vivo activity, mouse CT26 tumor model; conditions: 0.05 mg intratumorally every three days, three doses, 8 mice per group; for In vivo activity (% TGI): CT26 tumors in Balb/c mice
Protocol: For all studies, female Balb/c mice were obtained from Charles River Labs (Wilmington, Mass.) and used when they were 6-8 weeks of age and weighed approximately 20 g. All animals were allowed to acclimate and recover from any shipping-related stress for a minimum of 5 days prior to experimental use. Reverse osmosis chlorinated water and irradiated food (Laboratory Autoclavable Rodent Diet 5010, Lab Diet) were provided ad libitum, and the animals were maintained on a 12 h light and dark cycle. Cages and bedding were autoclaved before use and changed weekly. All experiments were carried out in accordance with The Guide for the Care and Use of Laboratory Animals and were approved by the Institutional Animal Care and Use Committee of Janssen R & D, Spring House, Pa. Each experimental group contained 8 mice. In vivo efficacy in a mouse CT26 tumor model was determined by implanting 500,000 CT26 colon carcinoma tumor cells subcutaneously into Balb/c mice and allowing tumors to establish to 100-300 mm^3. Compounds were injected intratumorally formulated in phosphate buffered saline in a volume of 0.1 mL Per injection. Mice were administered 0.05 mg every three days for a total of three doses. Efficacy was measured as the percent tumor growth inhibition (TGI) calculated by the reduction in size of the Treated tumor volume (T) over the Control tumor volume (C) according to the following formula. ((C−T)/(C))*100 when all control animals were still on study. Cures were defined as the number of animals with no measurable tumor detected 10 tumor volume doubling times (TVDT) after the last dose was administered.

[5] = test system: THP1-Blue ISG cells (IFN-β secretion); assay: Human interferon-β induction assay; assay type: cell-based; conditions: total cumulative IFN-β induction over the dose range tested (0.78 to 50 uM) in THP-1 cells after a 24 hour exposure
Protocol: THP1-Blue ISG cells are used to measure the secretion of IFN-β into the culture supernatant following STING pathway activation. To run the assay, anti-IFN-β capture antibodies were coated on […] well MultiArray plates (Mesoscale Discovery). After a one hour incubation, plates were washed and 50 μL supernatant from the STING human cell reporter assay plates or IFN-β standards were mixed with 20 μL Sulfotag-conjugated detection antibody in the coated plates. Plates were incubated, shaking for 2 h, washed, and read buffer was applied. Electrochemiluminescence was measured on the SectorImager.

Chain of human STING (biotinylated STING protein, residues 139-379 of Q86WV6, H232R) (Q86WV6 139-379 H232R, one chain of several): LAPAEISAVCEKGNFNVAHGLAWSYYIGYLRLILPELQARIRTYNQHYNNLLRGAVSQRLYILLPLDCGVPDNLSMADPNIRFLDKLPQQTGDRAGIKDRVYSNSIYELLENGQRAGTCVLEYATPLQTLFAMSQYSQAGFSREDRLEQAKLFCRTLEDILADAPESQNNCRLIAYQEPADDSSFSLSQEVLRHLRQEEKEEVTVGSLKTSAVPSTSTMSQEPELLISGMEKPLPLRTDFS
T1 sequence (Q86WV6 139-379 H232R): as the sequence (Q86WV6 139-379 H232R, one chain of several) above

CO[C@H]1[C@H]2OS(=O)(=O)NC[C@H]3O[C@@H](n4cnc5c(N)ncnc54)[C@H](F)[C@@H]3OP(=O)(O)OC[C@H]1O[C@H]2n1cnc2c(=O)[nH]c(N)nc21 [Compound 1]
Kd [1]: 1.2 nM | IC50 [2]: 4.6 nM | EC50 [3]: 77 nM | In vivo activity (% TGI) [4]: 108.9% | In vivo activity (cures) ([4]; number of animals with no measurable tumor 10 tumor volume doubling times after the last dose): 6 | human IFN-β (ranking value) [5]: 7930 pg/mL

CO[C@H]1[C@H]2OP(=O)(O)OC[C@@]34CO[C@@H]([C@H](n5cnc6c(N)ncnc65)O3)[C@@H]4OS(=O)(=O)NC[C@H]1O[C@H]2n1cnc2c(=O)[nH]c(N)nc21 [Compound 25]
Kd [1]: 3480 nM | IC50 [2]: 29200 nM | EC50 [3]: 100 nM | In vivo activity (% TGI) [4]: 88.9% | human IFN-β (ranking value) [5]: 6595 pg/mL
